Reference: publication PMC10108353, “Design and Pharmacological Characterization of α4β1 Integrin Cyclopeptide Agonists: Computational Investigation of Ligand Determinants for Agonism versus Antagonism” (Journal of Medicinal Chemistry, 2023)
pIC50: −log10 of the molar value. Starred links: 1 amine or outer side, 2 acyl side, 3 side chain; linkers in the order of their positions; H or OH if unused. Positions of bridges follow the written chain, without caps; N, C: chain ends. Non-standard residues stand in square brackets, D forms with d. Residues, ends and D or L forms follow the SMILES beside them. Groups on a side chain read outwards from the residue. *: point of attachment. Phe(4-NH2) = Nc1ccc(C[C@H](N)C(=O)O)cc1; X1 = O=C(Cc1ccc(N[*:1])cc1)[*:2]; NH(2-Me-phenyl) = Cc1ccccc1N*; CO = O=C([*:1])[*:2]

Key:
[1] = target: T1, α4β7 integrin (Homo sapiens, UniProt P13612+P26010); test: cell-based; format: cell-based; details: for agonist or antagonist behaviour, MAdCAM-1/RPMI8866 α4β7: agonist = adhesion index >1, antagonist = adhesion index <1
T1 construct: RPMI8866 cells expressing α4β7 integrin to the ligand MAdCAM-1; endogenous in cells; host or cells: RPMI8866
T1 sequence (P13612 34-1032): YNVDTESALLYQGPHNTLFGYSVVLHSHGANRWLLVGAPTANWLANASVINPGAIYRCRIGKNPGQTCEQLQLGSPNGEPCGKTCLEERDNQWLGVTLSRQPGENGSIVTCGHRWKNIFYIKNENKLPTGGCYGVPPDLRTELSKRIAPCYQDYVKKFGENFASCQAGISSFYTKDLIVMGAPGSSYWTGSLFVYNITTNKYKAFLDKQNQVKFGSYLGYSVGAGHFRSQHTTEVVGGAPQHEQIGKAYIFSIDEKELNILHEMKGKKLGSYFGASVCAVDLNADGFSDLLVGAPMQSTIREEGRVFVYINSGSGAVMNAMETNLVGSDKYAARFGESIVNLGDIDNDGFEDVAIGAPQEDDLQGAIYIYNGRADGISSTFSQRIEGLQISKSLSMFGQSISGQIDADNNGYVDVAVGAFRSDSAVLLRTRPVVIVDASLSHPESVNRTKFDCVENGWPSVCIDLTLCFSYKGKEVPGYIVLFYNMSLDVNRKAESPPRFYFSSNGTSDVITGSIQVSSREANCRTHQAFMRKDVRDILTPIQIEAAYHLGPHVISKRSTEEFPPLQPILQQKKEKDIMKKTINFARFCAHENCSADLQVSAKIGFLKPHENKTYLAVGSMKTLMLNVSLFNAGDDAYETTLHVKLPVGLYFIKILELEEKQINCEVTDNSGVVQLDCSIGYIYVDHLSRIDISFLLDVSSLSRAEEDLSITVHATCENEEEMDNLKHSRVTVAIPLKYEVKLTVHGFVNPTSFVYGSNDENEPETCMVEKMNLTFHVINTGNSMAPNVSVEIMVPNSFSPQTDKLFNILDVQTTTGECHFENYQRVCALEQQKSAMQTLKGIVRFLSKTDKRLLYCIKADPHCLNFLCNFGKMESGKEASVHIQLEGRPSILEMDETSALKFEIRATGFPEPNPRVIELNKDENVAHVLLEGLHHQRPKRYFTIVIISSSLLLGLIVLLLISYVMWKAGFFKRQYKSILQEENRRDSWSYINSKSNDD
T1 sequence (P26010 20-798): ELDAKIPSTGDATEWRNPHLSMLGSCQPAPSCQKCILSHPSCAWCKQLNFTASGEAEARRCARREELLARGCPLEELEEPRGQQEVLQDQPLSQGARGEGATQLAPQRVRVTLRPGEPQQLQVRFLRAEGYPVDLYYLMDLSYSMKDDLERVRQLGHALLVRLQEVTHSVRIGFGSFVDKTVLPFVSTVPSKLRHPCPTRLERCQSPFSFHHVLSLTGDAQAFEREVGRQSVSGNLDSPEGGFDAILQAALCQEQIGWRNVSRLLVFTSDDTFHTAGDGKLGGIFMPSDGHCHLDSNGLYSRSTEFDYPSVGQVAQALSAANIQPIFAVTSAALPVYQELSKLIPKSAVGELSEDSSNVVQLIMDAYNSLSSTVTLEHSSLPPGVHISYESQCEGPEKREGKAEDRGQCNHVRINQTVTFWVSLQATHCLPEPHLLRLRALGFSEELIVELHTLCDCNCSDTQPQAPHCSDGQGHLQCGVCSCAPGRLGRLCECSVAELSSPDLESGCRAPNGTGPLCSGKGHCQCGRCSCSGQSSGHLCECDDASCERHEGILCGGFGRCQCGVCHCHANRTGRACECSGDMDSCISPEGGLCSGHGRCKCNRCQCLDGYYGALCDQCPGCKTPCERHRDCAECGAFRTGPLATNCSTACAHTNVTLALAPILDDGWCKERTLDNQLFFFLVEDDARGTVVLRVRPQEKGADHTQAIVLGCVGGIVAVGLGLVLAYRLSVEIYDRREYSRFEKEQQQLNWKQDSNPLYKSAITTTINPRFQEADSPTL
Source text: mediated Jurkat cell adhesion to FN.

[2] = target: T2, α4β1 integrin (Homo sapiens, UniProt P05556+P13612); test: Jurkat E6.1 cell adhesion to VCAM-1; details: agonist = adhesion index >1, antagonist = adhesion index <1
T2 sequence (P05556 21-798, one chain of several): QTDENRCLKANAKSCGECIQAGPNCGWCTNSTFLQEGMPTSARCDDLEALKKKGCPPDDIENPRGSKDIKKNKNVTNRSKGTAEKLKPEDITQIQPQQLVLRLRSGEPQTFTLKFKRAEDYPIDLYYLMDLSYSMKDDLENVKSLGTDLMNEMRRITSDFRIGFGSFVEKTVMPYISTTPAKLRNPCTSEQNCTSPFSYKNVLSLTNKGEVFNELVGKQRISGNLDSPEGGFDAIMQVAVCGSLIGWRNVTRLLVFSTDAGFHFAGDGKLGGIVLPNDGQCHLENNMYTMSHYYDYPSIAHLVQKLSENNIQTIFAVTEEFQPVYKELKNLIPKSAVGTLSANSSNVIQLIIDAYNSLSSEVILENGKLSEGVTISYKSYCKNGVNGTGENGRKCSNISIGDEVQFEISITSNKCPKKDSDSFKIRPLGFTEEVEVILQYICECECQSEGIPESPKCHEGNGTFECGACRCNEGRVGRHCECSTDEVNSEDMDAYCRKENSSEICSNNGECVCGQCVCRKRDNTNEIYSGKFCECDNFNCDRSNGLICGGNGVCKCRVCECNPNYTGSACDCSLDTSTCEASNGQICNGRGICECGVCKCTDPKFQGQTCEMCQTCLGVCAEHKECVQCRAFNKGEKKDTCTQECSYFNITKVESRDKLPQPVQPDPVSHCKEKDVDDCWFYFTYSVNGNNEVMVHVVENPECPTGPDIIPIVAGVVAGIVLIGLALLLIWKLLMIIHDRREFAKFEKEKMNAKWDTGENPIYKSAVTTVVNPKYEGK
Description: (§1) Cells were seeded in 96-well plates coated with the specific natural human recombinant ligands (Table 1) and allowed to adhere in the presence of increasing concentrations (10^–10 to 10^–4 M) of the synthesized CPPs before the determination of the number of adherent cells (as described in Experimental Section).
(§2) For adhesion assays on Jurkat E6.1, RPMI8866, or HL60 cells, black 96-well plates were coated overnight at 4 °C with VCAM-1 or ICAM-1 or MAdCAM-1 (5 μg/mL) or Fg (10 μg/mL). The cells were counted, stained with CellTracker green CMFDA (12.5 μM, 30 min at 37 °C, Life Technologies), and after three washes, were preincubated with increasing concentrations of new CPP (10^–10 to 10^–4 M) or with the vehicle (methanol) for 30 min at 37 °C. Then cells were plated (500 000/well) on coated wells and incubated for 30 min at 37 °C. After three washes, adhered cells were lysed with 0.5% Triton X-100 in PBS (30 min at 4 °C) and fluorescence was measured (Ex485 nm/Em535 nm) in an EnSpire Multimode Plate Reader (PerkinElmer, Waltham, MA). For adhesion assays mediated by α5β1 integrin, 96-well plates were coated by passive adsorption with FN (10 μg/mL) overnight at 4 °C. K562 cells were counted and preincubated with various concentrations of the peptides or with the vehicle (methanol) for 30 min at RT. Afterward, the cells were plated (50 000 cells/well) and incubated at RT for 1 h. The wells were then washed with 1% BSA in PBS (phosphate-buffered saline) to take off nonadherent cells, and 50 μL of hexosaminidase substrate was added; after addition of 100 μL of stopping solution, the plates were read at 405 nm. In both types of adhesion assay, the number of adherent cells was determined by comparison with a standard curve made in the same plate. Experiments were carried out in quadruplicate and repeated at least three times.
(§3) Jurkat E6.1 (expressing α4β1 and αLβ2 integrin), K562 (expressing α5β1 integrin) and HL60 (expressing αMβ2 integrin) cell lines were purchased from ATCC (Rockville, MD, USA); these cells were routinely cultured in RPMI-1640 (Life Technologies) supplemented with glutamine and 10% FBS.
(§4) Cells were grown at 37 °C under 5% CO2 humidified atmosphere.

[3] = tested on: ERK1/2 phosphorylation mediated by α4β1 integrin; test: ERK1/2 phosphorylation in Jurkat E6.1 cells (Western blot); format: cell-based; details: compound 10^–7 to 10^–9 M, no FN, vs vehicle
Description: Intracellular signaling generated by the interaction of ECM components with α4β1 integrin produces an increase in the phosphorylation of cytoplasmatic second messengers such as ERK1/2 that contribute to α4 integrin-mediated cell functions.
Western blot analysis was performed as previously described, with the following modifications. […] On the other hand, after 1 h incubation with integrin antagonists, the cells were then seeded on FN (10 μg/mL) coated plates for 1 h. Integrin agonists were not incubated with FN. At the end of the incubation time, Jurkat E6.1 cells were lysed on ice using a mammalian protein extraction reagent (M-PER; Pierce, Rockford, IL) supplemented with a phosphatase inhibitor cocktail. Protein extracts were quantified using a BCA protein assay kit (Pierce), separated by 12% SDS-PAGE gel, transferred onto nitrocellulose membranes, and immunoblotted with anti-phospho-ERK1/2 (1:1000) (Cell Signaling Technology, Danvers, MA) or anti-total ERK1/2 antibodies (1:2500) (Cell Signaling Technology). Protocols for digital image acquisition and analysis have been previously described.[73] Densitometric analysis of the bands is reported (mean ± SD; n = 3); the amount of phosphorylated ERK1/2 (pERK1/2) is normalized to that of total ERK1/2 (totERK1/2). Experiments were replicated independently at least three times. Statistical analyses were performed using one-way ANOVA and the post hoc Newman–Keuls test.

[4] = target: T2, α4β1 integrin; test: Jurkat E6.1 cell adhesion to FN; details: agonist = adhesion index >1, antagonist = adhesion index <1
Description: as §1, §2, §3, §4

[5] = target: αLβ2 integrin (Homo sapiens, UniProt P05107+P20701); test: Jurkat E6.1 cell adhesion to ICAM-1
Sequence of αLβ2 integrin (P20701 26-1170): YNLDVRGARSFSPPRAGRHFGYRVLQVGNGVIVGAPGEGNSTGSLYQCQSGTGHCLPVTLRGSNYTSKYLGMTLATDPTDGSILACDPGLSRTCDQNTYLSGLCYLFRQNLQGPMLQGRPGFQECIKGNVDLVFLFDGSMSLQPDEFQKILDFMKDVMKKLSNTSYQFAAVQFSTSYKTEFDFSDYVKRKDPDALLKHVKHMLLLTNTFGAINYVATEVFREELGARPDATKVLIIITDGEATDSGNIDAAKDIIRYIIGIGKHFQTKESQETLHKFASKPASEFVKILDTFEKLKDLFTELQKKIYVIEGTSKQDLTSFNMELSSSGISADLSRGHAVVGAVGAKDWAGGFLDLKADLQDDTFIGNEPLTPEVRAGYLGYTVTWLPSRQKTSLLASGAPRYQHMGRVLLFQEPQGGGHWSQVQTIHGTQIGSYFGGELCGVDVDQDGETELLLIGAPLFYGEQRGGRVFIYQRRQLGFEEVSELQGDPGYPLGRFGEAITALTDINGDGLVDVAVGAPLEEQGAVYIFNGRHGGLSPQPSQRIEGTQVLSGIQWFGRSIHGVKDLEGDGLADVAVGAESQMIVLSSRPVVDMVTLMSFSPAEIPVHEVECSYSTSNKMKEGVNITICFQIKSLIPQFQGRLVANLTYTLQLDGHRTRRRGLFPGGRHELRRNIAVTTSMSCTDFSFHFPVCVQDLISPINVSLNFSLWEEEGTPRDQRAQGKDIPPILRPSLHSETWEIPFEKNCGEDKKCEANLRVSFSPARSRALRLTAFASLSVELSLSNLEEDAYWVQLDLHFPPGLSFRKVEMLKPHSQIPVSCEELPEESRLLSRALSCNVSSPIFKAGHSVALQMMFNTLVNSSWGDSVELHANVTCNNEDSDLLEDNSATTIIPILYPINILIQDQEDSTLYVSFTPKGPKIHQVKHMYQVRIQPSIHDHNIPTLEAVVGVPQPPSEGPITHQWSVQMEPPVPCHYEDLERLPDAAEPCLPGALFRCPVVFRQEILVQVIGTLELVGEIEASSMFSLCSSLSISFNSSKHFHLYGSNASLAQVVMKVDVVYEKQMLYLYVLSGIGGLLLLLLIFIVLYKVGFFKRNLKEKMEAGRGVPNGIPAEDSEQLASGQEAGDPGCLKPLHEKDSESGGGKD
Sequence of αLβ2 integrin (P05107 23-769): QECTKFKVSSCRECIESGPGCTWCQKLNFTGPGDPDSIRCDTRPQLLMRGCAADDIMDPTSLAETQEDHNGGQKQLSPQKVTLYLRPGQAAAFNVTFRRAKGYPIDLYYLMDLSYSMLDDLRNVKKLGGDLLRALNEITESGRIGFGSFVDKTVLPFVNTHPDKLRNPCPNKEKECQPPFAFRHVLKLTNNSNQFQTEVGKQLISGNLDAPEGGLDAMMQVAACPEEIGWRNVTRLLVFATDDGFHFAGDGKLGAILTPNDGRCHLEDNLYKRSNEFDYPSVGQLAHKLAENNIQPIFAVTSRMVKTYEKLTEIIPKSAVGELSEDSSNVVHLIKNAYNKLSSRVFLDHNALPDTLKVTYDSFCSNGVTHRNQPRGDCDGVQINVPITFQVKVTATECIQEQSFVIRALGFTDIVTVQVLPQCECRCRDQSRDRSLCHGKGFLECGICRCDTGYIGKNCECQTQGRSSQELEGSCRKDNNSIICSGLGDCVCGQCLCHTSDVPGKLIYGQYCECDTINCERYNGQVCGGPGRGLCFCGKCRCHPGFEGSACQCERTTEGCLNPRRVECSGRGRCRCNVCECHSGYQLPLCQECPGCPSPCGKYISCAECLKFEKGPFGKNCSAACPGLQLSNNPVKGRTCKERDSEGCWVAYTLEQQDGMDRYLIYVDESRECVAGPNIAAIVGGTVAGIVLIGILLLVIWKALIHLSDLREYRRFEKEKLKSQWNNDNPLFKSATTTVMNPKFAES
Description: as §1
For adhesion assays on Jurkat E6.1, RPMI8866, or HL60 cells, black 96-well plates were coated overnight at 4 °C with VCAM-1 or ICAM-1 or MAdCAM-1 (5 μg/mL) or Fg (10 μg/mL). The cells were counted, stained with CellTracker green CMFDA (12.5 μM, 30 min at 37 °C, Life Technologies), and after three washes, were preincubated with increasing concentrations of new CPP (10^–10 to 10^–4 M) or with the vehicle (methanol) for 30 min at 37 °C. […] After three washes, adhered cells were lysed with 0.5% Triton X-100 in PBS (30 min at 4 °C) and fluorescence was measured (Ex485 nm/Em535 nm) in an EnSpire Multimode Plate Reader (PerkinElmer, Waltham, MA). […] K562 cells were counted and preincubated with various concentrations of the peptides or with the vehicle (methanol) for 30 min at RT. […] The wells were then washed with 1% BSA in PBS (phosphate-buffered saline) to take off nonadherent cells, and 50 μL of hexosaminidase substrate was added; after addition of 100 μL of stopping solution, the plates were read at 405 nm. […]

[6] = after 2 h, 37 °C, RP HPLC
Description: Enzymatic stability tests were carried out in triplicate and repeated three times using mouse serum (Sigma-Aldrich). Peptides was dissolved in Tris buffer pH 7.4 to a 10 mM concentration, and 10 mL aliquots were added to 190 mL of serum. Incubations were maintained at 37 °C, and 20 mL aliquots were sampled from the incubation mixtures at the indicated times of 0, 0.15, 0.5, 1.0, 2.0, and 3.0 h. Samples were diluted with 90 mL of CH3CN, and enzymatic activity was definitively stopped by adding 90 mL of 0.5% AcOH. After centrifugation (13 000g for 20 min), the supernatants were separated and the amount of remaining peptide was assessed by RP HPLC.

[7] = tested on: α4β1 integrin; set-up: method as in PMID 23703610; details: low affinity agonist; cited from earlier work

Structure (SMILES)	agonist or antagonist behaviour, MAdCAM-1/RPMI8866 α4β7 [1]	agonist or antagonist behaviour, VCAM-1/Jurkat E6.1 α4β1 [2]	effect on ERK1/2 phosphorylation, compound administered alone [3]	agonist or antagonist behaviour, FN/Jurkat E6.1 α4β1 [4]	pIC50 [1]	pIC50 [5]	stability in mouse serum [6]	pIC50 [7]
Cc1ccccc1NC(=O)Nc1ccc(C[C@@H]2NC(=O)C[C@@H](C(=O)O)NC(=O)[C@H](C(C)C)NC(=O)[C@H](CC(=O)O)NC(=O)[C@H](CC(C)C)NC2=O)cc1 [3a, c[(S)-Phu-Leu-Asp-Val-(S)-isoAsp]] ([Phe(4-NH2)]([CO-NH(2-Me-phenyl)])LDVD-OH; lactam N-5 (inferred))	agonist	agonist	significant concentration-dependent increase of ERK1/2 phosphorylation	agonist				
Cc1ccccc1NC(=O)Nc1ccc(C[C@@H]2NC(=O)C[C@@H](C(=O)O)NC(=O)[C@H](C(C)C)NC(=O)[C@H](C)NC(=O)[C@H](CC(C)C)NC2=O)cc1 [12a, c[(S)-Phu-Leu-Ala-Val-(S)-isoAsp]] ([Phe(4-NH2)]([CO-NH(2-Me-phenyl)])LAVD-OH; lactam N-5 (inferred))	completely lost activity	agonist	significant concentration-dependent increase of ERK1/2 phosphorylation	agonist	< 5.30	< 5.30		
Cc1ccccc1NC(=O)Nc1ccc(CC(=O)N[C@@H](CC(C)C)C(=O)N[C@@H](CC(=O)O)C(=O)N[C@H](C(=O)N2CCC[C@H]2C(=O)O)C(C)C)cc1 [BIO1211, MPUPA-LDVP-OH] ({NH(2-Me-phenyl)-CO}-[X1]LDVP-OH)	inactive						almost completely hydrolyzed	
CCCC[C@@H](COC(=O)N(Cc1cccs1)Cc1cccs1)NC(=O)N[C@@H](CC(=O)OC)c1ccc2c(c1)OCO2 [THI0019]								2.70 to 3.00
